Organism: Rattus norvegicus
Assay: DrugMatrix - Regimen: Daily Repeat
Assay type: toxicity, organism-based, Sprague-Dawley
Parameters: regimen Daily Repeat, gender Male, age 6-8 weeks
Conditions: in vivo, po, 0 mg/kg, route oral GAVAGE, dose level Control, […]; for BASOPHIL / EOSINOPHIL / ERYTHROCYTE COUNT / HEMATOCRIT / HEMOGLOBIN / LEUKOCYTE COUNT / LYMPHOCYTE / MEAN CORPUSCULAR HEMOGLOBIN / MEAN CORPUSCULAR HEMOGLOBIN CONCENTRATION / MEAN CORPUSCULAR VOLUME / MONOCYTE / NEUTROPHIL / PLATELET COUNT: tissue Blood; for ALANINE AMINOTRANSFERASE / ALBUMIN / ALKALINE PHOSPHATASE / ASPARTATE AMINOTRANSFERASE / BLOOD UREA NITROGEN / CARBON DIOXIDE / CHLORIDE / CHOLESTEROL / CREATINE PHOSPHOKINASE / CREATININE / GLUCOSE / LACTATE DEHYDROGENASE / LIPASE / PHOSPHORUS / POTASSIUM / SODIUM / TOTAL BILIRUBIN / TOTAL PROTEIN / URIC ACID: tissue Plasma

## c1ccoc1 [FURAN]
72 h, time 3 day
  BASOPHIL: 0.55%
  EOSINOPHIL: 0.55%
  ERYTHROCYTE COUNT: 6.6 x10E6/uL
  HEMATOCRIT: 43.77%
  HEMOGLOBIN: 14.12 G/DL
  LEUKOCYTE COUNT: 10.15 x10E3/uL
  LYMPHOCYTE: 87.95%
  MEAN CORPUSCULAR HEMOGLOBIN: 21.4 pg
  MEAN CORPUSCULAR HEMOGLOBIN CONCENTRATION: 32.23 G/DL
  MEAN CORPUSCULAR VOLUME: 66.33 fL
  MONOCYTE: 1.7%
  NEUTROPHIL: 8.05%
  PLATELET COUNT: 1122 x10E3/uL
  ALANINE AMINOTRANSFERASE: 49.33 u/L
  ALBUMIN: 4.08 G/DL
  ALKALINE PHOSPHATASE: 565 u/L
  ASPARTATE AMINOTRANSFERASE: 81.5 u/L
  BLOOD UREA NITROGEN: 14.33 mg/dL
  CARBON DIOXIDE: 27.17 mmol/L
  CHLORIDE: 106.83 MEQ/L
  CHOLESTEROL: 74.83 mg/dL
  CREATINE PHOSPHOKINASE: 342.33 u/L
  CREATININE: 0.4 mg/dL
  GLUCOSE: 169.5 mg/dL
  LACTATE DEHYDROGENASE: 165.17 u/L
  LIPASE: 13.67 u/L
  PHOSPHORUS: 12.42 mg/dL
  POTASSIUM: 6.7 MEQ/L
  SODIUM: 151.17 MEQ/L
  TOTAL BILIRUBIN: 0.4 mg/dL
  TOTAL PROTEIN: 6.13 G/DL
  URIC ACID: 1.62 mg/dL
120 h, time 5 day
  BASOPHIL: 0.87%
  EOSINOPHIL: 0.53%
  ERYTHROCYTE COUNT: 6.86 x10E6/uL
  HEMATOCRIT: 45.15%
  HEMOGLOBIN: 14.42 G/DL
  LEUKOCYTE COUNT: 12.67 x10E3/uL
  LYMPHOCYTE: 87.1%
  MEAN CORPUSCULAR HEMOGLOBIN: 21.05 pg
  MEAN CORPUSCULAR HEMOGLOBIN CONCENTRATION: 32 G/DL
  MEAN CORPUSCULAR VOLUME: 65.75 fL
  MONOCYTE: 1.9%
  NEUTROPHIL: 8.25%
  PLATELET COUNT: 1111 x10E3/uL
  ALANINE AMINOTRANSFERASE: 46.17 u/L
  ALBUMIN: 4.15 G/DL
  ALKALINE PHOSPHATASE: 447.17 u/L
  ASPARTATE AMINOTRANSFERASE: 65.67 u/L
  BLOOD UREA NITROGEN: 13.17 mg/dL
  CARBON DIOXIDE: 29 mmol/L
  CHLORIDE: 104.5 MEQ/L
  CHOLESTEROL: 72 mg/dL
  CREATINE PHOSPHOKINASE: 368.5 u/L
  CREATININE: 0.3 mg/dL
  GLUCOSE: 162.83 mg/dL
  LACTATE DEHYDROGENASE: 99.33 u/L
  LIPASE: 12.67 u/L
  PHOSPHORUS: 12.65 mg/dL
  POTASSIUM: 6.52 MEQ/L
  SODIUM: 148.67 MEQ/L
  TOTAL BILIRUBIN: 0.38 mg/dL
  TOTAL PROTEIN: 6.15 G/DL
  URIC ACID: 1.9 mg/dL
Time 14 day
  BASOPHIL: 0.58%
  EOSINOPHIL: 0.45%
  ERYTHROCYTE COUNT: 7.51 x10E6/uL
  HEMATOCRIT: 46.87%
  HEMOGLOBIN: 15.2 G/DL
  LEUKOCYTE COUNT: 14.2 x10E3/uL
  LYMPHOCYTE: 80.78%
  MEAN CORPUSCULAR HEMOGLOBIN: 20.25 pg
  MEAN CORPUSCULAR HEMOGLOBIN CONCENTRATION: 32.42 G/DL
  MEAN CORPUSCULAR VOLUME: 62.45 fL
  MONOCYTE: 1.95%
  NEUTROPHIL: 13.97%
  PLATELET COUNT: 1115.17 x10E3/uL
  ALANINE AMINOTRANSFERASE: 32.5 u/L
  ALBUMIN: 4.22 G/DL
  ALKALINE PHOSPHATASE: 349.5 u/L
  ASPARTATE AMINOTRANSFERASE: 59.67 u/L
  BLOOD UREA NITROGEN: 14.83 mg/dL
  CARBON DIOXIDE: 30.33 mmol/L
  CHLORIDE: 102.17 MEQ/L
  CHOLESTEROL: 76 mg/dL
  CREATINE PHOSPHOKINASE: 163.17 u/L
  CREATININE: 0.37 mg/dL
  GLUCOSE: 157.33 mg/dL
  LACTATE DEHYDROGENASE: 93 u/L
  LIPASE: 10.4 u/L
  PHOSPHORUS: 11.93 mg/dL
  POTASSIUM: 6.55 MEQ/L
  SODIUM: 147.5 MEQ/L
  TOTAL BILIRUBIN: 0.4 mg/dL
  TOTAL PROTEIN: 6.45 G/DL
  URIC ACID: 0.7 mg/dL

Source: ChEMBL document CHEMBL3885881, “DrugMatrix”
